We go through one compound from patent US11304913B2, “Analgesic compositions” (Vapogenix, Inc., priority 2013, dated 2022).

This series is classed as physicochemical. The method, then:
A time-dependent evaporation study was performed with a composition of the invention (FIG. 3). Isoflurane alone was used as the control in the experiment.

For the compound `FC(F)OC(Cl)C(F)(F)F` (centres unmarked) [isoflurane], the original weight remaining (0.75 h) was 86.8%. Further, the “lost due to evaporation” value (after 45 minutes of experiment) was determined as 13.2%.
